# Measurements reported in patent US11517575B2, “Use of minaprine to reduce tumor growth” (Institut Gustave-Roussy, priority 2019, dated 2022).
# Assays:
# HCT116 cells = experiment: Screening of chemical libraries for IR-mediated cellular cannibalism (imaging flow cytometry, confocal validation); format: cell-based, human; conditions: for enhancement of IR-mediated cellular cannibalism: 8 Gy irradiated HCT116 cells, 10 μM compound, 24 h culture, dihydrochloride
# Experimental: FIG. 4 Identification of cannibalism modulators triggered by ionizing radiation. Compounds from the Prestwick (A) and CEA (F) libraries were tested for their capacities to induce cellular cannibalism after ionizing radiation. Cannibal cells were detected after homotypic cultures of 8 gray γ-irradiation HCT116 cells in the presence or absence of 10 μM of the Prestwick (A) and CEA […] library compounds. Each dot represents one compound. Representative images are shown in (B, G). (C, H) HCT116 cells were treated with the indicated drugs. After 24 h of treatment, cell death was monitored by staining with 3,3 dihexyloxacarbocyanine iodide (DiOC6(3)) and PI^+, and the percentage of dying (DiOC6(3)^low PI^−, open bars) and dead (DiOC6(3)^low PI^+, closed bars) cells was determined by cytofluorometry. Validation of the cannibalism inducers by fluorescent microscopy. Representative images (D, I) and quantification (E, J) are shown. Results are means s.e.m. of triplicate determinations.
# Untreated HCT116 cells were labeled with CMFDA (green fluorescence, CMFDA^+) or CMTMR, (red fluorescence, CMTMR) and treated HCT116 cells with CMFDA (green fluorescence, CMFDA^+). The following cell mixtures were performed: untreated CMTMR^+ HCT116 cells were mixed with untreated CMFDA^+ HCT116 cells, or untreated CMTMR^+ HCT116 cells were mixed with treated CMFDA^+ HCT116 cells. Then, cells were co-cultured during 24 hours in the presence or absence of the pharmacological inhibitor of ROCK, Y27632 (30 μM), the pan-caspase inhibitor, Z-VAD-fmk (ZVAD, 100 μM), the inhibitor of caspase-1, Ac-YVAD-cmk (YVAD, 100 μM), the necroptosis inhibitor, Necrostatin-1 (NEC1, 30 μM), the inhibitor of the vacuolar type H(+)-ATPase (V-ATPase) inhibiting autophagy, Bafilomycin A1 (BafA1, 50 nM), the inhibitor of Cdks with an anti-mitotic activity, Roscovitine (Rosco, 10 μM). After 24 hours of co-culture, both detached and adherent cells were collected and stained with Hoechst […] (10 μg/mL) during 1 hour at 37° C. in warmed complete medium. To detect phosphatidylserine (PS) exposure and plasma membrane permeability, labeled HCT116 cells were successively incubated with Biotin-AnnexinV (BD Pharmingen) as recommended by manufacturer, […] BV786-Streptavidin (BD Biosciences) and 3 μM DRAQ7 (BioStatus) during 15 minutes at 25° C. After washing with PBS solution, samples were immediately analyzed using an imaging flow cytometer FlowSight® (Amnis®, part of EMD Millipore). Data were acquired at a 20× magnification, using INSPIRE software. The 405 nm, 488 nm, and 561 nm lasers were used for excitation. Brightfield, Annexin V-BV786, DRAQ7, CMFDA, CMTMR and Hoechst […] stainings were detected using respectively channels for 420-480 nm, 745-800 nm, 642-745 nm, 480-560 nm, 595-642 nm and 430-505 nm. At least 1000 events of cells per sample were analyzed. Additional single-labeled controls were prepared to normalize fluorescent signal across different channels. Acquired data were analyzed using the IDEAS analysis software (v6.1; Merck-Millipore). Gating strategy was the following. Cells were gated for focused cells using the Gradient RMS feature. Cells were gated for single cells using the aspect ratio and area features. For the cannibalism detection, cells were gated in the double positive CMFDA^+ and CMTMR^+ staining.
# To detect PS exposure, plasma membrane permeability and cell cycle progression, cells were after co-culture sequentially labeled with specific fluorescent probes (such as FITC-conjugated AnnexinV, propidium iodide, and Hoechst 33342) and analyzed by flow cytometry. Both detached and adherent cells were collected and stained with Hoechst […] (10 μg/ml) during 1 hour at 37° C. in warmed complete medium. After washing with PBS, HCT116 cells were suspended in 1× binding buffer supplemented with fluorescein isothiocyanate (FITC)-conjugated Annexin V (BD Biosciences) and propidium iodide (PI, 1 μg/mL) (Sigma), as per manufacturer's instructions. […]
# CT26 tumor cells = experiment: Tumor growth in immunocompetent mice after intratumoral or intraperitoneal injection; format: in vivo, mouse; conditions: Balb/c mice
# Experimental: FIG. 7. Minaprine reduces tumor growth in immunocompetent mice after intratumoral or intraperitoneal injections. (A-C) 3 10^6 CT26 cells were implanted in immunocompetent BALB/c mice. Palpable tumors were injected with 10 μM Minaprine (or control) after 6 days. The tumor growth volume was then determined three times a week for the following 38 days (A and B). The percentage of mice survival was also determined (C). (D-I) 5 10^5 CT26 cells were implanted in immunocompetent BALB/c mice. After 12 days, tumor bearing mice were intraperitoneally injected with control (D and I), 0.3 mg/kg (E and I), 1 mg/kg (F and I), 3 mg/kg (G and I) or 10 mg/kg (H and I) of Minaprine. Tumor growth volumes (A-J) and fold change in the tumor volumes after intraperitoneal injection (D-I) were analyzed. Tumor growth volumes were the determined three times a week for the following 38 days.
# For intratumoral injection, 3 10^6 Balb/c-derived CT26 tumor cells were subcutaneously implanted in 8 week-old Balb/c mice (Janvier Laboratories). After 6 days, 10 μM of Minaprine or control phosphate buffer saline (PBS) was injected into tumors (20 μl) and tumor volume was evaluated 3 times a week. For intraperitoneal injection, 5 10^5 Balb/c-derived CT26 tumor cells were subcutaneously implanted in 8 week-old Balb/c mice (Janvier Laboratories). After 12 days, tumor-bearing mice were intraperitonealy injected with different concentrations of Minaprine (0.3, 1, 3 and 10 mg/kg) or PBS. Tumor volume was also evaluated 3 times a week. The experiments were randomized, performed in compliance with the EU Directive 63/2010 and approved by Ethical Committee at Gustave Roussy Cancer Campus (CEEA IRCIV/IGR n^o26).
# No statistical methods or criteria were used to estimate sample size or to include/exclude samples. The investigators were not blinded to group allocation during experiments and outcome assessment. Results are expressed as mean value SEM. To determine statistical significance, Two-way ANOVA (FIG. 7A) and Log rank (Mantel-Cox) (FIG. 7I) tests were used for calculation of P values. Prism 6 Software was used for the generation of survival graphs and statistical significance. Statistical significance was given as **p value<0.01 or *p value<0.05.
# We first subcutaneously implanted 3 10^6 Balb/c-derived CT26 colon cancer cells in immunocompetent Balb/c mice. After 6 days, tumor-bearing mouse were randomized and 10 μM of Minaprine (3 mg/kg) was injected into tumors. Tumor growth was analyzed during 38 days.
# We next determined whether intraperitoneal injections of Minaprine could also impact tumor growth. Thus, 5 10^5 Balb/c-derived CT26 cells were implanted into immunocompetent Balb/c mice. After 12 days, tumor-bearing mice were randomized, intraperitoneally injected with control (FIGS. 7D and 7I) or with Minaprine at different concentrations (FIGS. 7E-7I).
compound,measurement,setting,value
Cc1cc(-c2ccccc2)nnc1NCCN1CCOCC1.Cl.Cl [Minaprine dihydrochloride],enhancement of IR-mediated cellular cannibalism,HCT116 cells,efficient cellular cannibalism enhancer
same,enhancement of IR-mediated cellular cannibalism,HCT116 cells; listed as Minaprine,significantly increased in presence of ionizing radiation
same,induction of cellular cannibalism (Type IV cell death),"HCT116 cells; cancer cells treated with compound, without IR",favors the induction of Type IV cell death modality
same,tumor growth,CT26 tumor cells; intraperitoneal injection 1 mg/kg 12 days after implant of 5 10^5 CT26 cells,significantly decreased the growth of treated tumors
same,tumor growth,CT26 tumor cells; intraperitoneal injection 3 mg/kg 12 days after implant of 5 10^5 CT26 cells,significantly decreased the growth of treated tumors
same,tumor growth,CT26 tumor cells; intraperitoneal injection 10 mg/kg 12 days after implant of 5 10^5 CT26 cells,significantly decreased the growth of treated tumors
same,tumor growth,"CT26 tumor cells; intratumoral injection 3 mg/kg (10 μM) 6 days after implant of 3 10^6 CT26 cells, followed 38 days",significantly decreases the growth of tumors
same,survival of treated mice,"CT26 tumor cells; intratumoral injection 3 mg/kg, CT26 tumors, versus untreated control",increase survival
